Data published in ChEMBL document CHEMBL1250522 (Bioorg Med Chem, 2010).
pIC50: −log10 of the molar value.

How the values were obtained:
A2780 = test: Cytotoxicity against human A2780 cells after 72 hrs by SRB assay; assay type: functional, cell-based; settings: A2780, 72 h
CFPAC-1 = test: Cytotoxicity against human CFPAC-1 cells after 72 hrs by SRB assay; assay type: functional, cell-based; settings: CFPAC-1, 72 h
[1] = Cytotoxicity against human multidrug-resistant LCC-6 cells after 72 hrs by SRB assay; settings: LCC-6, 72 h
MCF7 = test: Cytotoxicity against human MCF7 cells after 72 hrs by SRB assay; assay type: functional, cell-based; settings: MCF7, 72 h
[2] = Cytotoxicity against human NCI/ADR cells after 72 hrs by SRB assay; settings: NCI/ADR-RES
[3] = Cytotoxicity against human wild type LCC-6 cells after 72 hrs by SRB assay; settings: LCC-6, 72 h

With `CC(=O)OCc1cccc2c1[C@H](OC(=O)c1ccccc1)[C@H]1C[C@H](OC(=O)[C@H](O)[C@@H](NC(=O)c3ccccc3)c3ccccc3)CN1C2=O` the pIC50 (A2780) was 5.11, the pIC50 (CFPAC-1) was under 4.00 and the pIC50 [1] was under 4.00. The pIC50 (MCF7) was 4.40, the pIC50 [2] was under 4.00 and the pIC50 [3] was 4.44.
In the case of `CC(=O)OCc1cccc2c1[C@H](OC(=O)c1ccccc1)[C@H]1C[C@H](OC(=O)[C@H](O)[C@@H](NC(=O)c3ccccc3)c3ccccc3)CN1C(=O)C2`, the pIC50 (A2780) was 5.42, the pIC50 (CFPAC-1) was 5.21 and the pIC50 [1] was 4.77. It also gave a pIC50 (MCF7) of 5.08, a pIC50 [2] of 4.38 and a pIC50 [3] of 5.31.
`O=C1CC/C=C\COc2ccccc2[C@H](NC(=O)c2ccccc2)[C@@H](O)C(=O)O[C@H]2C[C@@H]3[C@@H](OC(=O)c4ccccc4)c4c(cccc4C(=O)N3C2)CO1` gave a pIC50 (A2780) of 4.83, a pIC50 (CFPAC-1) of under 4.00 and a pIC50 [1] of under 4.00. The pIC50 (MCF7) was under 4.00, the pIC50 [2] was under 4.00 and the pIC50 [3] was under 4.00.
